The supplement of paper PMC4862054

Legend:
Conditions in all cases: 72 h
BT-549 = system: BT-549
Method: (§1)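 Drug sensitivity and resistance testing (DSRT) of breast cancer cell lines in 384-well plates, 5 concentrations in 10-fold dilutions over a compound-specific 10,000-fold range. After 72 h, cytotoxicity was read by CellTox Green fluorescence and viability by CellTiter-Glo luminescence (multiplexed), normalised to DMSO and benzethonium chloride controls. EC50 is the inflection point of the fitted dose-response curve (bottom asymptote free, so it can be relative for partial curves) and is censored at the highest tested concentration. Rows with DSS 0 (no meaningful response) were excluded.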

CAL-85-1 [1] = system: CAL-85-1
Method: as §1

HCC1143 = system: HCC1143
Method: as §1

CAL-51 [2] = system: CAL-51
Method: as §1

Hs578T = system: Hs578T
Method: as §1

MCF-10A = system: MCF-10A
Method: as §1

HDQ-P1 [3] = system: HDQ-P1
Method: as §1

HCC1599 = system: HCC1599
Method: as §1

MDA-MB-231 = system: MDA-MB-231
Method: as §1

CAL-85-1 [4] = system: CAL-85-1; remark: listed apart in the source
Summary of the method: (§2)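 For viability, cells received 2.5 µl CellTiter-Blue for 2 h at 37 °C and fluorescence was read at 560/590 nm. Before this, breast cancer cell lines in 20 µl suspension had been incubated for 72 h on 384-well plates pre-loaded with compound dissolved in 5 µl medium. EC50 was obtained from a percent-inhibition dose-response fit censored at the highest concentration, after normalisation of each plate to vehicle and a positive kill control; rows with a zero drug sensitivity score were discarded.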

MDA-MB-453 [5] = system: MDA-MB-453
Summary of the method: as §2

DU-4475 [6] = system: DU-4475
Summary of the method: as §2

CAL-51 [7] = system: CAL-51; remark: listed apart in the source
Summary of the method: as §2

CAL-148 [8] = system: CAL-148
Summary of the method: as §2

HDQ-P1 [9] = system: HDQ-P1; remark: listed apart in the source
Summary of the method: as §2

BT-474 [10] = system: BT-474
Summary of the method: as §2

MFM-223 = system: MFM-223
Method: as §1

CAL-148 [11] = system: CAL-148; remark: listed apart in the source
Method: as §1

MDA-MB-468 = system: MDA-MB-468
Method: as §1

BT-474 [12] = system: BT-474; remark: listed apart in the source
Method: as §1

HCC1937 = system: HCC1937
Method: as §1

CAL-120 = system: CAL-120
Method: as §1

DU-4475 [13] = system: DU-4475; remark: listed apart in the source
Method: as §1

MDA-MB-453 [14] = system: MDA-MB-453; remark: listed apart in the source
Method: as §1

MDA-MB-436 = system: MDA-MB-436
Method: as §1

| Structure (SMILES) | EC50, CellTox Green (BT-549) [µM] | EC50, CellTox Green (CAL-85-1 [1]) [µM] | EC50, CellTox Green (HCC1143) [µM] | EC50, CellTox Green (CAL-51 [2]) [µM] | EC50, CellTox Green (Hs578T) [µM] | EC50, CellTox Green (MCF-10A) [µM] | EC50, CellTox Green (HDQ-P1 [3]) [µM] | EC50, CellTox Green (HCC1599) [µM] | EC50, CellTox Green (MDA-MB-231) [µM] | EC50, CellTiter-Blue viability (CAL-85-1 [4]) [µM] | EC50, CellTiter-Blue viability (MDA-MB-453 [5]) [µM] | EC50, CellTiter-Blue viability (DU-4475 [6]) [µM] | EC50, CellTiter-Blue viability (CAL-51 [7]) [µM] | EC50, CellTiter-Blue viability (CAL-148 [8]) [µM] | EC50, CellTiter-Blue viability (HDQ-P1 [9]) [µM] | EC50, CellTiter-Blue viability (BT-474 [10]) [µM] | EC50, CellTox Green (MFM-223) [µM] | EC50, CellTox Green (CAL-148 [11]) [µM] | EC50, CellTox Green (MDA-MB-468) [µM] | EC50, CellTox Green (BT-474 [12]) [µM] | EC50, CellTox Green (HCC1937) [µM] | EC50, CellTox Green (CAL-120) [µM] | EC50, CellTox Green (DU-4475 [13]) [µM] | EC50, CellTox Green (MDA-MB-453 [14]) [µM] | EC50, CellTox Green (MDA-MB-436) [µM] |
| --- | --- | --- | --- | --- | --- | --- | --- | --- | --- | --- | --- | --- | --- | --- | --- | --- | --- | --- | --- | --- | --- | --- | --- | --- | --- |
| CN(c1ccccc1CNc1nc(Nc2ccc3c(c2)CC(=O)N3)ncc1C(F)(F)F)S(C)(=O)=O | > 10 | 4.49 | 0.0724 | 0.201 | 1.29 | 1.73 | 0.0209 | > 10 | 1.82 |  |  |  |  |  |  |  |  |  |  |  |  |  |  |  |  |
| COc1ncc(-c2ccc3nccc(-c4ccnnc4)c3c2)cc1NS(=O)(=O)c1ccc(F)cc1F |  |  |  | 0.0917 | 0.511 | 0.349 |  |  | 0.157 | 0.0272 | 0.00538 | 0.113 | 0.0126 | 0.0276 | 0.00671 | 0.0135 | 0.0225 | 0.0747 | 0.16 | 0.134 | 0.299 |  |  |  |  |
| C[C@@]1(C(=O)Nc2ccc(F)nc2)CCCN1c1nc(Nc2cc(C3CC3)n[nH]2)c2cccn2n1 |  |  | 1.35 | 0.824 |  | 3.23 | 5 |  | 1.98 | 0.858 | 0.314 | 1.51 | 1.5 | 1.17 | 0.293 |  | 0.587 | > 10 | 0.00379 |  |  | 4.5 |  |  |  |
| Nc1nccc(-c2c(-c3ccc(F)cc3)ncn2C2CCCCC2)n1 |  |  |  |  |  | 4.81 |  |  |  |  |  |  |  |  |  |  |  |  |  |  |  |  |  |  |  |
| COc1c(C)cnc(Cn2cnc3c(Cl)nc(N)nc32)c1C [BIIB021] |  | 3.95 |  | 0.758 | 0.321 | 0.189 | 1.96 |  | 0.928 | 0.49 | 0.064 | 0.143 | 0.341 | 0.133 | 0.241 | 0.0937 |  | 0.0845 |  | 1.79 |  |  | 0.293 |  |  |
| CC(C)C[C@H](NC(=O)[C@H](Cc1ccccc1)NC(=O)c1cnccn1)B(O)O [Bortezomib] | 0.0493 | 0.00502 | 0.165 | 0.0275 | 0.0117 | 0.21 | 0.015 |  | 0.0139 | 0.00776 | 0.00636 | 0.0186 | 0.0389 | 0.0247 | 0.00529 | 0.00719 | 0.013 | 0.0172 | 0.00194 | 0.0328 | 0.0113 | 0.0438 | 0.229 | 0.156 | 0.0324 |
| C#Cc1cccc(Nc2ncnc3cc(OC)c(OCCCCCCC(=O)NO)cc23)c1 [CUDC-101] |  | 0.208 |  | 2.46 | 6.67 | 8.03 |  |  | 0.403 | 0.426 | 0.168 | 1.13 | 3.79 | 0.817 | 0.213 | 0.474 | 1.6 | 1.7 | 0.775 | 2.72 |  | 5.1 |  | 0.271 | 0.792 |
| COc1cccc2c1C(=O)c1c(O)c3c(c(O)c1C2=O)C[C@@](O)(C(C)=O)C[C@@H]3O[C@H]1C[C@H](N)[C@H](O)[C@H](C)O1 [Daunorubicin] |  |  |  | 0.183 |  |  |  |  |  | 0.29 | 0.465 | 0.0564 | 0.059 | 0.0661 | 0.338 | 0.16 |  |  | 0.1 |  |  |  |  |  | 0.953 |
| O=c1[nH]c(=O)n([C@H]2C[C@H](O)[C@@H](CO)O2)cc1F [Floxuridine] |  | 4.65 |  | 0.734 |  |  | 3.07 |  |  | 0.0663 | 5.88 |  | 0.0469 | 0.0198 |  |  |  |  |  |  |  |  |  |  |  |
| O=c1[nH]cc(F)c(=O)[nH]1 [Fluorouracil] |  |  |  |  |  |  |  |  |  | 0.68 | 3.9 | 2.57 | 5.39 | 0.944 |  |  |  |  |  |  |  |  |  |  | 7.05 |
| C[C@@H]1C=C2C(=O)O[C@@H]3CC[C@H](C1)[C@]23O [Galiellalactone] |  | 47.4 |  |  |  |  |  |  |  | 6.9 | 7.21 |  | 48.9 | 16.1 | 39.4 | 28.9 |  |  |  |  |  |  |  |  |  |
